Measurements from patent US12527781B2, “Treatment of neurodegenerative conditions by disruption of Rhes” (The Regents of the University of California, priority 2017, dated 2026).
Entries after “also recorded” stand apart in the source; their conditions may differ.

Tests used:
rTg4510 mouse [1] = test: nest building / nest shredding behaviour in rTg4510 mice; format: in vivo; conditions: prolonged oral 80 mg/Kg/day
From the text: FIG. 2. FIG. 2 is a boxplot depicting qualitative scores for mice in shredding nest material for control mice and in the tau mouse model rTg4510 expressing human mutant tau P301L, with efficient shredding scored at 3.5 or higher. Control litter-mates where able to shred their nest material efficiently while rTg4510 mice lost their ability in an age-related matter (score less than 1).
As transgenic mice age, they display progressive worsening that begins with impaired marble burial and nest shredding and by 30 weeks progresses to hyperexcitability, restlessness in response to human approach and obsessive circling. […] Nest building was assessed at 20 weeks. […] At five weeks, littermate controls and transgenic mice produced nests with similar scores.

[2] = tested on: lysosomal protein degradation; test: proteolysis of long-half-life proteins after 3H-leucine pulse; format: cell-based; conditions: 48 h pulse with 3H-leucine; NH4Cl and leupeptin present
Experimental: To assess this possibility, proteolysis of long-half-life proteins was evaluated after a long pulse (48 h) with ^3H-leucine.

NIH3T3 mouse fibroblasts = test: macroautophagy flux with tandem reporter mCherry-GFP-LC3B; format: cell-based
rTg4510 mouse [3] = test: tau pathology in rTg4510 mice (MC1 immunoreactivity, coronal brain area, Iba1 microglia); format: in vivo
From the text: These mice develop tau tangles in the cerebral cortex by 4 months of age and in the hippocampus by 5.5 months. By 5.5 months, the mice also lose about 60% of their hippocampal CA1 neurons. Spatial memory deficits become apparent by 2.5 to 4 months of age; however electrophysiological properties of cortical neurons are detected before the accumulation of tau pathology. […] MC1 immunoreactivity, corresponding to neurofibrillary tangles throughout hippocampus, amygdala, entorhinal cortex and cerebrocortex, was first detected at ˜16 weeks and progressed by 20 weeks to a mean of 92.99±13.626 MC1^+ cells/mm^2 in the cerebral cortex, and 67.57±13.113 cells/mm^2 in the hippocampus.
Lonafarnib treatment was initiated when the animals were ten weeks old. The drug was resuspended in 20% HBCD and gavage fed, five days on and five days off at 80 mg/Kg/day. The drug was remarkably effective in reducing MC1 immunoreactivity.

[4] = tested on: Mouse cultured neurons overexpressing Rhes; test: accumulation of phosphorylated tau in cultured neurons overexpressing Rhes; format: cell-based; conditions: increasing concentrations, assayed between 25 to 250 nM
From the text: FIG. 1. Mouse cultured neurons overexpressing Rhes display an aberrant accumulation of phosphorylated tau. […] The two lines represent results for separate culture replications.
Mouse cultured neurons overexpressing Rhes display an aberrant accumulation of phosphorylated tau.

[5] = cited from earlier work

NC(=O)N1CCC(CC(=O)N2CCC([C@H]3c4ncc(Br)cc4CCc4cc(Cl)cc(Br)c43)CC2)CC1 [Lonafarnib]
nest shredding / nest building (rTg4510 mouse [1]; absence of Doxycicline (L80), chronic intermittent from ten weeks, assessed at 20 weeks, 80 mg/kg/day): prevented the nest shredding deficit; also recorded: rescued nest building
nest shredding (rTg4510 mouse [1]; presence of Doxycicline (L80D)): prevented the nest shredding deficit
proteolysis effect in the presence of NH4Cl and leupeptin [2]: abolished
number of autophagosomes (NIH3T3 mouse fibroblasts; at lower concentrations): remained unchanged
macroautophagy flux (NIH3T3 mouse fibroblasts; basal macroautophagy, NIH3T3 mCherry-GFP-LC3B): dose-dependent increase
macroautophagy flux in induced cells (NIH3T3 mouse fibroblasts; macroautophagy induced by paraquat or thapsigargin): did not further increase macroautophagy flux
MC1+ cells/mm^2 in hippocampus (rTg4510 mouse [3]; 80 mg/Kg/day gavage, five days on and five days off from ten weeks, evaluated at 20 weeks, p=6.4×10^−3 vs vehicle): 13.38±2.615 MC1+ cells/mm^2
MC1+ cells/mm^2 in cortex (rTg4510 mouse [3]; 80 mg/Kg/day gavage, five days on and five days off from ten weeks, evaluated at 20 weeks, p=7.2×10^−3 vs vehicle): 44.27±4.064 MC1+ cells/mm^2
hippocampal microgliosis (Iba1) (rTg4510 mouse [3]; 20-week old transgenic mice vs age matched untreated transgenic mice): significantly reduced
coronal brain area (rTg4510 mouse [3]; chronic treatment, 20 weeks, vs vehicle and untreated age-matched transgenic mice): significantly larger
effect as acute intervention on tau pathology (rTg4510 mouse [3]; gavage daily for 2 weeks, 80 mg/Kg/day, 20 week-old rTg4510 mice, after tau pathology was fulminant): ineffective
accumulation of phosphorylated tau [4]: reduced
efficacy and tolerability ([5]; dose of 100-150 mg/m2 body surface area): effective and well tolerated
side effects in humans ([5]; humans): few side effects in humans
